pKi: −log10 of the molar value. Where a SMILES comes first, the peptide text is derived from it. [ ]: non-standard residue; d: D form. hPhe = N[C@@H](CCc1ccccc1)C(=O)O
Assays:
[1] = molecular target: Mu-type opioid receptor (Rattus norvegicus, UniProt P33535); assay: Displacement of [3H]DAMGO from mu opioid receptor in Wistar rat brain
[2] = molecular target: Delta-type opioid receptor (Rattus norvegicus, UniProt P33533); assay: Displacement of [3H]DPDPE from delta opioid receptor in Wistar rat brain
[3] = Half life in mouse brain at 10 ul; type: ADME, organism-based
[4] = test system: Mus musculus; assay: Antinociceptive activity in mouse at 4ul, icv by hot plate test assessed as area under %MPE - time curve after 30 mins; type: functional
[5] = test system: Mus musculus; assay: Antinociceptive activity in mouse at 4 ul, icv by hot plate test assessed as area under %MPE - time curve after 15 mins; type: functional
[6] = test system: Mus musculus; assay: Antinociceptive activity in mouse at 4ul, icv by hot plate test assessed as area under %MPE - time curve after 45 mins; type: functional
[7] = molecular target: Mu-type opioid receptor (Rattus norvegicus) (UniProt P33535); assay: Decrease of maximum binding of [3H]DAMGO to mu opioid receptor in Wistar rat brain at 10000 nm; set-up: scale not given: the % may be the effect or the level left
Chain of Mu-type opioid receptor (Rattus norvegicus) (P33535 whole entry): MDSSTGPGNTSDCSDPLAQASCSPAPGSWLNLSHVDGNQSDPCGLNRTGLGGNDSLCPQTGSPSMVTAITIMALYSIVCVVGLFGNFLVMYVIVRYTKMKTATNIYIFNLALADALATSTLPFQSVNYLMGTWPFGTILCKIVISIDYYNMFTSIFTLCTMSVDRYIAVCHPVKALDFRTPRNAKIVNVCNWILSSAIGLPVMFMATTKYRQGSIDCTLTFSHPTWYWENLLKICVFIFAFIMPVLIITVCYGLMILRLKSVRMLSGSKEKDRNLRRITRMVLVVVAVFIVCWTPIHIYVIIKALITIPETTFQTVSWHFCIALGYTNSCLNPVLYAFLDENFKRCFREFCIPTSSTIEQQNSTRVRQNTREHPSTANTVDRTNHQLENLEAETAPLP

Chain of Delta-type opioid receptor (P33533 whole entry): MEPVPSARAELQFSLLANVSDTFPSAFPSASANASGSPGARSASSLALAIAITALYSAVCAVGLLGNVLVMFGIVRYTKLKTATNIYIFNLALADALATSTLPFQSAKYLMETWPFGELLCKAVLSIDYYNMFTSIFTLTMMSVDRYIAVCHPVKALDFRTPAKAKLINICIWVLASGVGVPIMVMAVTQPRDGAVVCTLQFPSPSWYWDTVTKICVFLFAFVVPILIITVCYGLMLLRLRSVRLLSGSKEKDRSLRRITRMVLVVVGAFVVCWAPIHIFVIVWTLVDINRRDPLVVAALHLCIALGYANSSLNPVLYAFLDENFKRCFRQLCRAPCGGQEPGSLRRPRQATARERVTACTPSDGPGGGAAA
Chain of Mu-type opioid receptor (P33535 whole entry): as the sequence (P33535 whole entry) above

SMILES	pKi [1]	pKi [2]	half-life [3] [min]	Activity [4] [%]	Activity [5] [%]	Activity [6] [%]	Activity [7] [%]
NC(=O)[C@H](Cc1ccccc1)NC(=O)[C@H](NC(=O)[C@@H]1CCCN1C(=O)[C@@H](N)Cc1ccc(O)cc1)c1ccccc1	5.87	5.68					
NC(=O)[C@@H]1CCCN1C(=O)[C@H](CCc1ccccc1)NC(=O)[C@@H]1CCCN1C(=O)[C@@H](N)Cc1ccc(O)cc1 (H-YP[hPhe]P-NH2)	6.23	< 5.00					
NC(=O)[C@H](Cc1ccccc1)NC(=O)[C@H](Cc1ccccc1)NC(=O)[C@@H]1CCCN1C(=O)[C@@H](N)Cc1ccc(O)cc1 [ENDOMORPHIN 2]			19.7	34.8	40.1		
NC(=O)[C@H](Cc1ccccc1)NC(=O)[C@H](CCc1ccccc1)NC(=O)[C@@H]1CCCN1C(=O)[C@@H](N)Cc1ccc(O)cc1	7.55	< 5.00	32.5	50	67.5	38.2	
NC(=O)[C@H](Cc1ccccc1)NC(=O)[C@@H](NC(=O)[C@@H]1CCCN1C(=O)[C@@H](N)Cc1ccc(O)cc1)c1ccccc1	6.57	< 5.00					
NC(=O)[C@@H]1CCCN1C(=O)[C@@H](NC(=O)[C@@H]1CCCN1C(=O)[C@@H](N)Cc1ccc(O)cc1)c1ccccc1		< 5.00					
NC(=O)[C@@H]1CCCN1C(=O)[C@H](NC(=O)[C@@H]1CCCN1C(=O)[C@@H](N)Cc1ccc(O)cc1)c1ccccc1		< 5.00					24.5
NC(=O)[C@@H]1CCCN1C(=O)[C@H](Cc1ccccc1)NC(=O)[C@@H]1CCCN1C(=O)[C@@H](N)Cc1ccc(O)cc1 [MORPHICEPTIN] (H-YPFP-NH2)	6.87	< 5.00					
NC(=O)[C@H](CCc1ccccc1)NC(=O)[C@H](Cc1ccccc1)NC(=O)[C@@H]1CCCN1C(=O)[C@@H](N)Cc1ccc(O)cc1	7.13	< 5.00					
NC(=O)[C@@H](NC(=O)[C@H](Cc1ccccc1)NC(=O)[C@@H]1CCCN1C(=O)[C@@H](N)Cc1ccc(O)cc1)c1ccccc1	7.57	< 5.00	24.1	42.2	54.2	35.5	
NC(=O)[C@H](NC(=O)[C@H](Cc1ccccc1)NC(=O)[C@@H]1CCCN1C(=O)[C@@H](N)Cc1ccc(O)cc1)c1ccccc1	6.67	< 5.00					

— ChEMBL document CHEMBL1138958, “Opioid receptor binding and antinociceptive activity of the analogues of endomorphin-2 and morphiceptin with phenylalanine mimics in the position 3 or 4” (Bioorg Med Chem Lett, 2006)
